Results as given in US9676789B2, “Aminated derivative of homoharringtonine, preparation method therefor, and application thereof” (HANGZHOU BENSHENG PHARMACEUTICAL CO., LTD., priority 2011, dated 2017).
Converted amounts (≈) assume the structure as drawn.

Assays:
[1] = test system: H9 (acute lymphoblastic leukemia, ALL); test: MTT leukemia cell growth inhibition, 72 h; type: cell-based, human; details: Homo sapiens, H9, 72 h; for IC50: read-out: IC50; for IC90: read-out: IC90
Outline: (§1)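 Seed 6000 cells/well; 1640 + 10% FBS; add derivative at various concentrations, mix; 72 h, 37 °C, 5% CO2; MTT read; untreated = 100%.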

[2] = test system: Jurkat (acute lymphoblastic leukemia, ALL); test: MTT leukemia cell growth inhibition, 72 h; type: cell-based, human; details: Homo sapiens; for IC50: read-out: IC50; for IC90: read-out: IC90
Outline: as §1

[3] = test system: K562/adr (drug-resistant, chronic myeloid leukemia, CML); test: MTT leukemia cell growth inhibition, 72 h; type: cell-based, human; details: Homo sapiens, K562/Adr; for IC50: read-out: IC50; for IC90: read-out: IC90
Outline: as §1

[4] = test system: Kasumi-1 (acute myeloid leukemia M2 type, AML-M2); test: MTT leukemia cell growth inhibition, 72 h; type: cell-based, human; details: Homo sapiens, Kasumi-1, 72 h; for IC50: read-out: IC50; for IC90: read-out: IC90
Outline: as §1

[5] = test system: NB4 (acute promyelocytic leukemia, AML); test: MTT leukemia cell growth inhibition, 72 h; type: cell-based, human; details: Homo sapiens, NB4, 72 h; for IC50: read-out: IC50; for IC90: read-out: IC90
Outline: as §1

[6] = test system: RPMI8226 (multiple myeloma); test: MTT multiple myeloma cell growth inhibition, 72 h; type: cell-based, human; details: for IC50 / IC90: Homo sapiens, RPMI-8226, RPMI8226, 72 h; for IC50: read-out: IC50; for IC90: read-out: IC90
Outline: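 RPMI8226 cells at 6000 per well in 1640 medium with 10% fetal bovine serum, exposed to homoharringtonine derivatives at various concentrations. Incubation 72 h at 37° C, 5% CO2; viable cells read by MTT.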

[7] = test system: A549 (human lung cancer); test: MTT solid tumor cell growth inhibition, 72 h; type: cell-based; details: Homo sapiens, A549, 72 h; for IC50: read-out: IC50; for IC90: read-out: IC90
Outline: (§2)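 Steps: seed 4000 cells per well in 10% FBS DMEM high glucose; incubate 24 h at 37° C under 5% CO2; add homoharringtonine derivatives at several concentrations; incubate 72 h; determine viable cells by MTT and calculate % viability versus untreated control.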

[8] = test system: Becap37 (human breast cancer cell); test: MTT solid tumor cell growth inhibition, 72 h; type: cell-based; details: Homo sapiens, Becap37, 72 h; for IC50: read-out: IC50; for IC90: read-out: IC90
Outline: as §2

[9] = test system: Hela (human cervical cancer cell); test: MTT solid tumor cell growth inhibition, 72 h; type: cell-based; details: Homo sapiens, HeLa; for IC50: read-out: IC50; for IC90: read-out: IC90
Outline: as §2

[10] = test system: Hep-2 (human hepatocellular carcinoma); test: MTT solid tumor cell growth inhibition, 72 h; type: cell-based; details: Homo sapiens, HEp-2, Hep2, 72 h; for IC50: read-out: IC50; for IC90: read-out: IC90
Outline: as §2

[11] = test system: Huh7 (human liver cancer cell); test: MTT solid tumor cell growth inhibition, 72 h; type: cell-based; details: Homo sapiens, Huh-7, Huh7, 72 h; for IC50: read-out: IC50; for IC90: read-out: IC90
Outline: as §2

[12] = test system: MGC 803 (human gastric cancer cell); test: MTT solid tumor cell growth inhibition, 72 h; type: cell-based; details: Homo sapiens, MGC 803, 72 h; for IC50: read-out: IC50; for IC90: read-out: IC90
Outline: as §2

[13] = test system: RKO (human colon adenocarcinoma cell); test: MTT solid tumor cell growth inhibition, 72 h; type: cell-based; details: Homo sapiens; for IC50: read-out: IC50; for IC90: read-out: IC90
Outline: as §2

[14] = test system: CNE (nasopharyngeal carcinoma cell); test: MTT solid tumor cell growth inhibition, 72 h; type: cell-based, human; details: Homo sapiens; for IC50: read-out: IC50; for IC90: read-out: IC90
Outline: as §2

[15] = test system: CaES-17 (esophageal cancer cell); test: MTT solid tumor cell growth inhibition, 72 h; type: cell-based, human; details: Homo sapiens, CaEs17, CaES-17, 72 h; for IC50: read-out: IC50; for IC90: read-out: IC90
Outline: as §2

[16] = test system: MG63 (osteosarcoma); test: MTT solid tumor cell growth inhibition, 72 h; type: cell-based, human; details: Homo sapiens, MG 63, 72 h; for IC50: read-out: IC50; for IC90: read-out: IC90
Outline: as §2

[17] = test system: PANC-1 (pancreatic cancer); test: MTT solid tumor cell growth inhibition, 72 h; type: cell-based, human; details: Homo sapiens, PANC-1, 72 h; for IC50: read-out: IC50; for IC90: read-out: IC90
Outline: as §2

[18] = test system: PC-3 (prostate cancer); test: MTT solid tumor cell growth inhibition, 72 h; type: cell-based, human; details: Homo sapiens, PC-3, 72 h; for IC50: read-out: IC50; for IC90: read-out: IC90
Outline: as §2

[19] = test system: SK-OV-3 (ovarian cancer cell); test: MTT solid tumor cell growth inhibition, 72 h; type: cell-based, human; details: Homo sapiens, SK-OV-3, 72 h; for IC50: read-out: IC50; for IC90: read-out: IC90
Outline: as §2

[20] = test system: U87 MG (malignant glioma cell); test: MTT solid tumor cell growth inhibition, 72 h; type: cell-based, human; details: Homo sapiens, U-87 MG; for IC50: read-out: IC50; for IC90: read-out: IC90
Outline: as §2

[21] = test system: K562/adr, NB4, Kasumi-1 and H9; test: Anti-leukemia activity, summary over cell lines; type: cell-based, human; details: result in words, summary of Table 1
Text: Leukemia cell lines: K562/adr (drug-resistant, chronic myeloid leukemia, CML), NB4 (acute promyelocytic leukemia, AML), Kasumi-1 (acute myeloid leukemia M2 type, AML-M2), Jurkat (acute lymphoblastic leukemia, ALL), all of which are donated by Cancer Research Institute of Zhejiang University, China; and H9 (acute lymphoblastic leukemia, ALL), which is purchased from China Center for Type Culture Collection.
Obtaining 6000 well-growing leukemia cells and inoculating them into wells of a 96-well cell culture plate. The culture medium is the 1640 cell culture medium containing 10% fetal bovine serum. After adding the homoharringtonine derivatives of different concentrations and mixing uniformly, placing the plate in a carbon dioxide cell incubator (5% CO2) at 37° C. and incubating for 72 hours. Then the viable cell concentration is determined by the MTT method. In this experiment, the cell viability in control group (not treated with any compound) is set as 100%.

[22] = test system: A549, PANC-1, Becap37, MG63, Huh7, RKO, Hela, CaES-17, CNE, Hep-2, PC-3 and SK-OV-3; test: Anti-human solid tumor effect, summary over cell lines; type: cell-based; details: result in words, summary of Table 2
Description: Human solid tumor cell lines: Hep-2 ([…]), A549 (human lung cancer), CaES-17 (esophageal cancer cell), PC-3 (prostate cancer), CNE (nasopharyngeal carcinoma cell), and SK-OV-3 (ovarian cancer cell), all of which are purchased from China Center For Type Culture Collection; RKO (human colon adenocarcinoma cell), MGC 803 (human gastric cancer cell), MG63 (osteosarcoma) and U87 MG (malignant glioma cell), all of which are purchased from Fuxiang Bio-tech Co. Ltd., Shanghai, China; PANC-1 (pancreatic cancer), Huh7 (human liver cancer cell), Becap37 (human breast cancer cell), and Hela (human cervical cancer cell), all of which are donated by Cancer Research Institute of Zhejiang University, China.
Obtaining 4000 well-growing human solid tumor cells and inoculating them into wells of a 96-well cell culture plate. The culture medium is DMEM High Glucose cell culture medium containing 10% fetal bovine serum. The plate is placed in a carbon dioxide cell incubator (5% CO2) at 37° C. and incubating for 24 hours. After adding the homoharringtonine derivatives of different concentration and mixing uniformly, the plate is placed in a carbon dioxide cell incubator (5% CO2) at 37° C. and incubating for 72 hours. Then the viable cell concentration is determined by the MTT method and the cell viability (%) after drug treatment is calculated. In this experiment, the cell viability of control group (not treated with any compound) is set as 100%.

COC1=C[C@]23CCCN2CCc2cc4c(cc2[C@@H]3[C@@H]1OC(=O)[C@@](O)(CCCC(C)(C)O)CC(=O)N1CCC(N(C)C)CC1)OCO4 [BS-HH-050]
IC50 [1]: 0.13 µg/mL (≈ 0.203 µM)
IC90 [1]: 0.35 µg/mL (≈ 0.545 µM)
IC50 [2]: 0.12 µg/mL (≈ 0.187 µM)
IC90 [2]: 16 µg/mL (≈ 24.9 µM)
IC50 [3]: 0.72 µg/mL (≈ 1.12 µM)
IC90 [3]: 8.99 µg/mL (≈ 14 µM)
IC50 [4]: 0.041 µg/mL (≈ 0.0639 µM)
IC90 [4]: 0.18 µg/mL (≈ 0.28 µM)
IC50 [5]: 0.08 µg/mL (≈ 0.125 µM)
IC90 [5]: 0.17 µg/mL (≈ 0.265 µM)
IC50 [6]: 0.1 µg/mL (≈ 0.156 µM)
IC90 [6]: 0.38 µg/mL (≈ 0.592 µM)
IC50 [7]: 0.7 µg/mL (≈ 1.09 µM)
IC90 [7]: > 16 µg/mL
IC50 [8]: 0.26 µg/mL (≈ 0.405 µM)
IC90 [8]: 16 µg/mL (≈ 24.9 µM)
IC50 [9]: 0.46 µg/mL (≈ 0.717 µM)
IC90 [9]: > 16 µg/mL
IC50 [10]: 0.31 µg/mL (≈ 0.483 µM)
IC90 [10]: > 16 µg/mL
IC50 [11]: 0.1 µg/mL (≈ 0.156 µM)
IC90 [11]: 16 µg/mL (≈ 24.9 µM)
IC50 [12]: 0.18 µg/mL (≈ 0.28 µM)
IC90 [12]: 0.48 µg/mL (≈ 0.748 µM)
IC50 [13]: 0.053 µg/mL (≈ 0.0826 µM)
IC90 [13]: 0.23 µg/mL (≈ 0.358 µM)
IC50 [14]: 0.15 µg/mL (≈ 0.234 µM)
IC90 [14]: > 16 µg/mL
IC50 [15]: 0.46 µg/mL (≈ 0.717 µM)
IC90 [15]: 16 µg/mL (≈ 24.9 µM)
IC50 [16]: 0.19 µg/mL (≈ 0.296 µM)
IC90 [16]: 7.22 µg/mL (≈ 11.2 µM)
IC50 [17]: 0.23 µg/mL (≈ 0.358 µM)
IC90 [17]: > 16 µg/mL
IC50 [18]: 0.45 µg/mL (≈ 0.701 µM)
IC90 [18]: > 16 µg/mL
IC50 [19]: 0.57 µg/mL (≈ 0.888 µM)
IC90 [19]: > 16 µg/mL
IC50 [20]: 0.24 µg/mL (≈ 0.374 µM)
IC90 [20]: 1.06 µg/mL (≈ 1.65 µM)
anti-K562/adr, anti-NB4, anti-Kasumi-1 and anti-H9 activity [21]: strong
anti-A549, anti-PANC-1, anti-Becap37, anti-MG63, anti-Huh7, anti-RKO, anti-Hela, anti-CaES-17, anti-CNE, anti-Hep-2, anti-PC-3 and anti-SK-OV-3 effect [22]: strong

COC1=C[C@]23CCCN2CCc2cc4c(cc2[C@@H]3[C@@H]1OC(=O)[C@@](O)(CCCC(C)(C)O)CC(=O)NCc1ccc(C)o1)OCO4 [BS-HH-054, O-3-[(2R)-2,6-dihydroxy-2-(2′-(5-methyl)furan-2-methylamino-2′-oxoethyl)-6-methylheptanoyl]cephalotaxine]
IC50 [1]: 0.17 µg/mL (≈ 0.272 µM)
IC90 [1]: 0.43 µg/mL (≈ 0.688 µM)
IC50 [2]: 0.11 µg/mL (≈ 0.176 µM)
IC90 [2]: 16 µg/mL (≈ 25.6 µM)
IC50 [3]: 0.66 µg/mL (≈ 1.06 µM)
IC90 [3]: 4.4 µg/mL (≈ 7.04 µM)
IC50 [4]: 0.053 µg/mL (≈ 0.0848 µM)
IC90 [4]: 0.19 µg/mL (≈ 0.304 µM)
IC50 [5]: 0.09 µg/mL (≈ 0.144 µM)
IC90 [5]: 0.2 µg/mL (≈ 0.32 µM)
IC50 [6]: 0.092 µg/mL (≈ 0.147 µM)
IC90 [6]: 0.24 µg/mL (≈ 0.384 µM)
anti-RPMI8226 (multiple myeloma) effect ([6]; result in words, summary of Table 2): strong
IC50 [7]: 0.72 µg/mL (≈ 1.15 µM)
IC90 [7]: > 16 µg/mL
IC50 [8]: 0.14 µg/mL (≈ 0.224 µM)
IC90 [8]: 16 µg/mL (≈ 25.6 µM)
IC50 [9]: 0.3 µg/mL (≈ 0.48 µM)
IC90 [9]: > 16 µg/mL
IC50 [10]: 0.23 µg/mL (≈ 0.368 µM)
IC90 [10]: > 16 µg/mL
IC50 [11]: 0.12 µg/mL (≈ 0.192 µM)
IC90 [11]: 16 µg/mL (≈ 25.6 µM)
IC50 [12]: 0.15 µg/mL (≈ 0.24 µM)
IC90 [12]: 6 µg/mL (≈ 9.6 µM)
IC50 [13]: 2.75 µg/mL (≈ 4.4 µM)
IC90 [13]: 6.97 µg/mL (≈ 11.2 µM)
IC50 [14]: 0.15 µg/mL (≈ 0.24 µM)
IC90 [14]: 16 µg/mL (≈ 25.6 µM)
IC50 [15]: 1.37 µg/mL (≈ 2.19 µM)
IC90 [15]: > 16 µg/mL
IC50 [16]: 0.12 µg/mL (≈ 0.192 µM)
IC90 [16]: 8.07 µg/mL (≈ 12.9 µM)
IC50 [17]: 0.15 µg/mL (≈ 0.24 µM)
IC90 [17]: > 16 µg/mL
IC50 [18]: 0.46 µg/mL (≈ 0.736 µM)
IC90 [18]: > 16 µg/mL
IC50 [19]: 0.47 µg/mL (≈ 0.752 µM)
IC90 [19]: > 16 µg/mL
IC50 [20]: 0.32 µg/mL (≈ 0.512 µM)
IC90 [20]: 16 µg/mL (≈ 25.6 µM)
anti-K562/adr, anti-NB4, anti-Kasumi-1 and anti-H9 activity [21]: strong
anti-A549, anti-PANC-1, anti-Becap37, anti-MG63, anti-Huh7, anti-RKO, anti-Hela, anti-CaES-17, anti-CNE, anti-Hep-2, anti-PC-3 and anti-SK-OV-3 effect [22]: strong
